Reference: patent US8106233B2, “Antioxidant compounds” (Merck Patent GmbH, priority 2005, dated 2012)

Key:
[1] = 2,2-diphenyl-1-picrylhydrazyl (DPPH) assay; conditions: DPPH in ethanol, 515 nm, 25° C.
Procedure: The unpaired electron results in a strong absorption band at 515 nm, and the solution has a dark-violet colour. In the presence of a free-radical scavenger, the electron is paired, the absorption disappears, and the decoloration proceeds stoichiometrically taking into account the electrons taken up. The absorbance is measured in a photometer. The anti-free-radical property of the substance to be tested is determined by measuring the concentration at which 50% of the 2,2-diphenyl-1-picrylhydrazyl employed has reacted with the free-radical scavenger. This concentration is expressed as EC50, a value which should be regarded as a property of the substance under the given measurement conditions. The substance investigated is compared with a standard (for example tocopherol). The EC50 value here is a measure of the capacity of the respective compound to scavenge free radicals. The lower the EC50 value, the higher the capacity to scavenge free radicals. […] A further important aspect for the action of the antioxidants is the time in which this EC50 value is achieved. This time, measured in minutes, gives the TEC50 value, which allows a conclusion to be drawn on the rate at which these antioxidants scavenge free radicals. […] The unpaired electron results in a strong absorption band at 515 nm, and the solution has a dark-violet colour. In the presence of a free-radical scavenger, the electron is paired, the absorption disappears, and the decoloration proceeds stoichiometrically taking into account the electrons taken up. The absorbance is measured in a photometer. The anti-free-radical property of the substance to be tested is determined by measuring the concentration at which 50% of the 2,2-diphenyl-1-picrylhydrazyl employed have reacted with the free-radical scavenger. This concentration is expressed as EC50, a value which should be regarded as a substance property under the given measurement conditions. The substance investigated is compared with a standard (for example tocopherol). The EC50 value here is a measure of the capacity of the respective compound to scavenge free radicals. The lower the EC50 value, the higher the capacity to scavenge free radicals. […] Various concentrations of the compound to be tested are added to aliquots of this solution. The absorbance is measured in each case at 515 nm, 25° C. and 1 cm. […] The lower this value, the higher the corresponding free-radical-reducing activity. The reaction time needed to achieve this value is indicated in the value TEC50 (in minutes).

[2] = Oxidation in UV light: change in the UV spectrum on irradiation; type: physicochemical; conditions: xenon lamp
Procedure: The curves stand for the unirradiated substance (exposed to 0 kJ/m^2), after irradiation for 15 min (exposure to 86 kJ/m^2), after irradiation for 65 min (exposure to 373 kJ/m^2), after irradiation for 235 min (exposure to 1349 kJ/m^2) and after irradiation for 405 min (exposure to 2325 kJ/m^2).

[3] = Oxidation in UV light in the presence of further antioxidants: beta-carotene emulsions on irradiation; type: physicochemical; conditions: emulsion with 0.5% by weight beta-carotene and 4% by weight compound vs emulsion without compound, UV irradiation for 90 min, n=4

Row | Compound | Stability TEC50 (reaction time needed to achieve EC50) [1] | Emax of the UV-A absorption formed on irradiation ([2]; after UV irradiation, 290-400 nm) | Change in UV absorption in the UV-A region on irradiation ([2]; after irradiation for 65 min (373 kJ/m^2), 95.69 W/m^2 in the range 290-400 nm, increases further on longer irradiation) | Effect on beta-carotene degradation (absorption at Emax 440-480 nm) in emulsion [3]
1 | O=C1OC(C(O)CO)C(OP(=O)(O)O)=C1O (stereo not drawn) [Ascorbyl (2-O) phosphate] | 1200 min | – | – | –
2 | CC(=O)Oc1c(C)c(C)c2c(c1C)CCC(C)(CCC[C@H](C)CCC[C@H](C)CCCC(C)C)O2 (stereo partly drawn) [alpha-Tocopheryl acetate] | 600 min | – | – | –
3 | Cc1c(C)c2c(c(C)c1O)CC[C@@](C)(CCC[C@H](C)CCC[C@H](C)CCCC(C)C)O2 [alpha-Tocopherol] | 30 min | – | – | –
4 | CCCCC(CC)COC(=O)C(=Cc1cc(OC)c(O)c(OC)c1)C(=O)OCC(CC)CCCC (stereo not drawn) [Hydroxy dimethoxybenzylidene malonate, Di-2-ethylhexyl (4-hydroxy-3,5-dimethoxybenzylidene)malonate] | 1200 min | – | – | –

Continued, values first:

Row | Stability TEC50 (reaction time needed to achieve EC50) [1] | Emax of the UV-A absorption formed on irradiation ([2]; after UV irradiation, 290-400 nm) | Change in UV absorption in the UV-A region on irradiation ([2]; after irradiation for 65 min (373 kJ/m^2), 95.69 W/m^2 in the range 290-400 nm, increases further on longer irradiation) | Effect on beta-carotene degradation (absorption at Emax 440-480 nm) in emulsion [3] | Compound
5 | <5 min | – | – | – | O=C1O[C@H]([C@@H](O)CO)C(O)=C1O [Ascorbic acid]
6 | 600 min | 320-340 nm | significantly increased UV absorption | stabilises the beta-carotene | CCCCC(CC)COC(=O)C(Cc1cc(OC)c(O)c(OC)c1)C(=O)OCC(CC)CCCC (stereo not drawn) [Hydroxy dimethoxybenzyl malonate, di-2-ethylhexyl 4-hydroxy-3,5-dimethoxy-benzylmalonate]
